Test results from patent publication EP1082333B1, “THIOCO[…], PREPARATION AND THERAPEUTIC APPLICATION” (SANOFI-SYNTHELABO, priority 1998, dated 1999).

Test system: réflexe polysynaptique
Test: Inhibition of the polysynaptic reflex in the normal rat (RPRN), EMG of biceps femoris
Format: in vivo
Conditions: 10 mg/kg, voie i.p
Text: L'activité décontraccurante du composé de l'invention a été déterminée par l'inhibition du réflexe polysynaptique chez le rat normal (RPRN). L'animal est placé en contention en décubitus ventral. Les membres postérieurs sont immobilisés. Les réflexes polysynaptiques sont évoqués dans le muscle Biceps fémoral (fléchisseur de la cuisse) par stimulation électrique de la voûte plantaire (territoire cutané du nerf sural). L'EMG (Electro-Myo-Graphie) est recueilli par deux électrodes en acier inoxydable insérées dans le muscle parallélement aux fibres.
Les électrodes de stimulation en acier inoxydable sont insérées en position sous-cutanée. La stimulation consiste en un choc électrique carré de 0.2-0.4 ms de durée et de 0.2 Hz de fréquence. L'intensité de la stimulation est réglée pour obtenir des réflexes bien constitués et de surface stable (8-12 mA).
L'EMG est amplifié. La surface de chaque réflexe est mesurée.
Des séries de 20 réflexes sont enregistrées toutes les 15 minutes. La surface des 20 réflexes de chaque série est moyennée.
Après plusieurs séries contrôles, le produit à étudier est administré. La moyenne des 20 premières réponses contrôles est prise pour 100 %. L'évolution des réponses EMG est suivie alors pendant 2 ou 3 heures.

COc1c(OC2OC(C(=O)O)C(O)C(O)C2O)cc2c(c1OC)-c1ccc(SC)c(=O)cc1C(NC(C)=O)CC2 (stereo not shown) [composé de l'invention]
inhibe le réflexe polysynaptique: 78%
